Assay results: patent US12396964B2 (Shinkei Therapeutics, Inc., priority 2021, dated 2025)
Counter-ions that a name gives are not always drawn.

Experiments:
clinical = conditions: human, in vivo
Description: The subjects received the test treatments as described in Table 1 below, under direct observation following an overnight fast of at least 10 hours.
Plasma concentrations of amantadine increased rapidly and reached maximum plasma concentrations at around 3 hours after start of the IV infusion.
The plasma amantadine concentrations from healthy adults enrolled in the open-label, multiple-cohort, single-period non-randomized single-ascending dose study of Example 1 were used to determine the decrease in concentration of amantadine over time, after the administration of the first dose of 100 mg and 150 mg in different cohorts. The data is supportive in determining the timing of the second dose of amantadine.

[1] = Safety and tolerability study of amantadine hydrochloride IV solution 200 mg with plasma sampling in healthy adult subjects (Example 2); type: in vivo, human; conditions: 200 mg IV
Description: 4 mL venous blood was collected before dosing (0 hour) and at the following nominal times after dosing: 0.5, 1, 2, 3, 4, 5, 5.5, 6, 7, 9, 12, 16, 24, 36, 48 and 72 hours post-dose. Safety was assessed by qualified study staff by evaluating the following: reported adverse events, clinical laboratory test results, vital sign measurements, ECG findings, physical examination findings at screening and clinic exit (including body weight and height measurements), and concomitant medication usage. The blood samples collected were used to assess the decrease in concentration of amantadine in the plasma over time, and is tabulated in Table 3 below.

[2] = Applicants' finding on safety of the intravenous dose, volume and rate of administration
Description: As discussed above, the volume of fluid is not only critical in terms of increase in ICP, but it is also critical in terms of defining the time of administration of the dose, and therefore, the rate of administration of the dose. […] Each dose is administered over a period of 180 minutes, i.e. at a rate of about 1.39 ml/min.

half-life (clinical; both sexes, iv, T1/2): 11.4 h
Tmax (clinical; both sexes, iv, Tmax): 3 h
half-life (clinical; both sexes, iv, half-life (T½)): 11 to 15 h
Tmax (clinical; both sexes, iv, maximum plasma concentration (Tmax)): 3 to 4 h
half-life (clinical; both sexes, iv, mean elimination half-life): 11.5 to 14.5 h
increase of AUC0-28, more than proportional to the dose (clinical; both): ~3 fold
increase of Cmax, more than proportional to the dose (clinical; both): ~2.3 fold
Tmax (clinical; both, iv): 3.25 h
plasma levels remained detectable post-dose (clinical; both, iv, 3 h): 48 to 72 h
SMILES: NC12CC3CC(CC(C3)C1)C2 [amantadine hydrochloride]
% decrease in plasma amantadine concentration ([1]; 0 hr after first dose): 0.0%
% decrease in plasma amantadine concentration ([1]; 1 hr after first dose): 14.0%
% decrease in plasma amantadine concentration ([1]; 2 hr after first dose): 20.9%
% decrease in plasma amantadine concentration ([1]; 2.5 hr after first dose): 24.5%
% decrease in plasma amantadine concentration ([1]; 3 hr after first dose): 26.2%
% decrease in plasma amantadine concentration ([1]; 4 hr after first dose): 30.0%
% decrease in plasma amantadine concentration ([1]; 6 hr after first dose): 34.5%
% decrease in plasma amantadine concentration ([1]; 9 hr after first dose): 48.3%
safety of the dose ([2]; about 100 mg to about 200 mg in a volume of 250 ml as a single dose, over 180 minutes, twice a day): safe
safety of the rate of administration ([2]; rate ranging between 0.5 mg/min to about 1.2 mg/min): safe
